According to US10457654B2 (GENENTECH, INC., priority 2017, dated 2019):
Counter-ions that a name gives are not always drawn.

Assays:
hNav1.7 [1] = target: T1, hNav1.7 (Homo sapiens (Human), UniProt Q15858); test: Tritiated compound binding to membranes from cells expressing hNav1.7 and the β1 subunit, competitive binding (LBA, Ex. 243A); details: 100 pM [3H]compound, 18 h, room temperature
Experimental: Tritiated Compound Binding to Membranes Isolated from Cells that Heterologously Express hNav1.7 and the β1 Subunit
Preparation of membranes containing recombinantly expressed sodium channels: Frozen recombinant cell pellets were thawed on ice and diluted to 4 times the cell pellet weight with ice cold 50 mM Tris HCl, pH 7.4 buffer. The cell suspensions were homogenized on ice using a motorized glass dounce homogeniser. Homogenates were further diluted 8.4 times with ice cold 50 mM Tris HCl, pH 7.4 buffer and then centrifuged at 200×g at 4° C. for 15 min. The supernatants were collected and centrifuged at 10000×g at 4° C. for 50 min. […] The homogenized membranes were then processed through a syringe equipped with a 26 gauge needle. Protein concentrations were determined by Bradford Assay and the membranes were stored at −80° C.
Radioligand Binding Studies: Saturation experiments. A competitive NaV1.7 inhibitor having a methyl group was tritiated. Three tritiums were incorporated in place of methyl hydrogens to generate [^3H]compound. Binding of this radioligand was performed in 5 mL borosilicate glass test tubes at room temperature. […] Non-specific binding was determined in the presence of 1 μM unlabeled compound. After 18h, the reactants were filtered through GF/C glass fiber filters presoaked in 0.5% w/v polyethylene imine. […] [^3H]compound bound to filters was quantified by liquid scintillation counting.
Competitive binding experiments: Binding reactions were performed in 96-well polypropylene plates at room temperature for 18h. In 360 μL, membranes were incubated with 100 pM [^3H]compound and increasing concentrations of Test Compound. Non-specific binding was defined in the presence of 1 μM unlabeled compound. Reactions were transferred and filtered through 96-well glass fiber/C filter plates presoaked with 0.5% polyethylene imine. The filtered reactions were washed 5 times with 200 μL ice cold buffer containing 0.25% BSA. Bound radioactivity was determined by liquid scintillation counting.
Data Analysis: For saturation experiments, non-specific binding was subtracted from total binding to provide specific binding and these values were recalculated in terms of pmol ligand bound per mg protein. Saturation curves were constructed and dissociation constants were calculated using the single site ligand binding model: Beq=(Bmax*X)/(X+Kd), where Beq is the amount of ligand bound at equilibrium, Bmax is the maximum receptor density, Kd is the dissociation constant for the ligand, and X is the free ligand concentration. For competition studies percent inhibition was determined and IC50 values were calculated using a 4 parameter logistic model (% inhibition=(A+((B−A)/(1+((x/C)^D)))) using XLfit, where A and B are the maximal and minimum inhibition respectively, C is the IC50 concentration and D is the (Hill) slope.
Target sequence in this assay (Q15858 whole entry, looked up): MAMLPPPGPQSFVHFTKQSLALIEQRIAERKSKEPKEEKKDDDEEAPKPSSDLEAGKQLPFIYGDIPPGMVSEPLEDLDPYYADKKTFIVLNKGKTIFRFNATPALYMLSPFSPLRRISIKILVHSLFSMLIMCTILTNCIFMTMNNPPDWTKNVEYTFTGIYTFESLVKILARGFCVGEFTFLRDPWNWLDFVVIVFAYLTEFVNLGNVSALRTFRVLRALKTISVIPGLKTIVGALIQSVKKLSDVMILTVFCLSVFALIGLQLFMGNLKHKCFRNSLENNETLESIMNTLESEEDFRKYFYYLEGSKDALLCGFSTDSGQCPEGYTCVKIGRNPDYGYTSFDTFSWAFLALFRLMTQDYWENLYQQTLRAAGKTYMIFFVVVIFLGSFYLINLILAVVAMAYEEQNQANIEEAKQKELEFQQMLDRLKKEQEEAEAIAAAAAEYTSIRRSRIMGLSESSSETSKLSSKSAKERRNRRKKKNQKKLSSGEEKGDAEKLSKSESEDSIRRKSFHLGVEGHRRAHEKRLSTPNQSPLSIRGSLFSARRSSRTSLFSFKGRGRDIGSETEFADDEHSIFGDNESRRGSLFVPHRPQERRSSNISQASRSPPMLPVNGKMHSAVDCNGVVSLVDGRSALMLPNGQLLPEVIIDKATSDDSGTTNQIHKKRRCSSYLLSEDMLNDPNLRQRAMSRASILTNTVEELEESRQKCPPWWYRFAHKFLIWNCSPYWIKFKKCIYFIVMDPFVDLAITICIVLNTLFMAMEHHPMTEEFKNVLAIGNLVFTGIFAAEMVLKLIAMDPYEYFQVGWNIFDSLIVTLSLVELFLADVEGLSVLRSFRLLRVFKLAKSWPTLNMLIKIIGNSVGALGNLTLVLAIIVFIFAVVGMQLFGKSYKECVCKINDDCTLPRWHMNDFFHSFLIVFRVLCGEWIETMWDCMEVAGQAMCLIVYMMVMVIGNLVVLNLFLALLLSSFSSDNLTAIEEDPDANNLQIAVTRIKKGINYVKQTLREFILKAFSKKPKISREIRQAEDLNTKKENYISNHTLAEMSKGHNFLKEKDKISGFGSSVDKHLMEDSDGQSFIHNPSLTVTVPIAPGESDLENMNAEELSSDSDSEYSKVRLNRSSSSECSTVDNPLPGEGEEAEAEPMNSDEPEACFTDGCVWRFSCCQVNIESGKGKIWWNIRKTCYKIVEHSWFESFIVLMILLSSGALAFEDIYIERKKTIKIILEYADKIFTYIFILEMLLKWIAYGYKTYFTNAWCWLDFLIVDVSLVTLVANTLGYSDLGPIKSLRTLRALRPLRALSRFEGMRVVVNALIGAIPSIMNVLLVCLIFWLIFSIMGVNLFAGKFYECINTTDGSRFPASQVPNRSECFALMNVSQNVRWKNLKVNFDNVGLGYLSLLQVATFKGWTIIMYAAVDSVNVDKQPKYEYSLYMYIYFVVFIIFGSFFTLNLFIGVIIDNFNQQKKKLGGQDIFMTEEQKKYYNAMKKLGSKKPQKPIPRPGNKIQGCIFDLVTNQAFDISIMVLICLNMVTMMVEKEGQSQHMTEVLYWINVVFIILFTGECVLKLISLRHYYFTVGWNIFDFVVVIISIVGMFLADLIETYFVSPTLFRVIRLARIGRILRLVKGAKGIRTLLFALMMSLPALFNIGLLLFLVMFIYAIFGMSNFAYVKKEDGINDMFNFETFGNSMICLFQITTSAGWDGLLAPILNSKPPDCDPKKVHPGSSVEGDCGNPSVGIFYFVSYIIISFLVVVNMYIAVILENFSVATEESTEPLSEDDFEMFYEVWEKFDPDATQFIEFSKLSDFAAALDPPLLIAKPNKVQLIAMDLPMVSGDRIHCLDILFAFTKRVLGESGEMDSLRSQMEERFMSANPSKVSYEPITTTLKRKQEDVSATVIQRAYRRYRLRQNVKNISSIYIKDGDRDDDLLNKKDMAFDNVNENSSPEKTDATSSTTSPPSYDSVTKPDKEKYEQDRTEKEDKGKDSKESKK
Target sequence in this assay (Q07699 whole entry partner, looked up): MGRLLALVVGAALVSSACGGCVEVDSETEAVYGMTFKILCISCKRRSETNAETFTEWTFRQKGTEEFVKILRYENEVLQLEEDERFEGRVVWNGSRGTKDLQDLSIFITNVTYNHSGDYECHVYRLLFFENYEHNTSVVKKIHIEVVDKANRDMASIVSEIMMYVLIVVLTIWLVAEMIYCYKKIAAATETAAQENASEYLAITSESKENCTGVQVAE

hNav1.7 [2] = target: T1, hNav1.7; test: Tritiated compound binding to membranes from cells expressing hNav1.7 and the β1 subunit, modified protocol (LBA, Ex. 243B); details: 300 pM [3H]compound, room temperature, read-out: Nav1.7 LBA (Ex. 243B) IC50
Target sequence in this assay (Q15858 whole entry, looked up): as the sequence (Q15858 whole entry, looked up) above
Target sequence in this assay (Q07699 whole entry partner, looked up): as the sequence (Q07699 whole entry partner, looked up) above

hNav1.7 [3] = target: T1, hNav1.7; test: Patch voltage clamp electrophysiology assay (EP), Syncropatch 384PE, CHO cells expressing Nav1.7; type: cell-based; details: holding potential -50 mV; […] compound incubation; read-out: EP_SP hNav1.7 (Ex. 243B) IC50
Method in brief: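 Automated whole-cell patch clamp on CHO cells stably expressing human Nav1.7, CsCl/EGTA internal and NMDG/80 mM Na+ external (pH 7.4). From −50 mV holding, −10 mV step, 20 ms recovery at −150 mV, then second −10 mV pulse where block is measured; inhibition after 7.5 min compound incubation.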
Target sequence in this assay (Q15858 other isoform, or with tags, fused parts or gaps): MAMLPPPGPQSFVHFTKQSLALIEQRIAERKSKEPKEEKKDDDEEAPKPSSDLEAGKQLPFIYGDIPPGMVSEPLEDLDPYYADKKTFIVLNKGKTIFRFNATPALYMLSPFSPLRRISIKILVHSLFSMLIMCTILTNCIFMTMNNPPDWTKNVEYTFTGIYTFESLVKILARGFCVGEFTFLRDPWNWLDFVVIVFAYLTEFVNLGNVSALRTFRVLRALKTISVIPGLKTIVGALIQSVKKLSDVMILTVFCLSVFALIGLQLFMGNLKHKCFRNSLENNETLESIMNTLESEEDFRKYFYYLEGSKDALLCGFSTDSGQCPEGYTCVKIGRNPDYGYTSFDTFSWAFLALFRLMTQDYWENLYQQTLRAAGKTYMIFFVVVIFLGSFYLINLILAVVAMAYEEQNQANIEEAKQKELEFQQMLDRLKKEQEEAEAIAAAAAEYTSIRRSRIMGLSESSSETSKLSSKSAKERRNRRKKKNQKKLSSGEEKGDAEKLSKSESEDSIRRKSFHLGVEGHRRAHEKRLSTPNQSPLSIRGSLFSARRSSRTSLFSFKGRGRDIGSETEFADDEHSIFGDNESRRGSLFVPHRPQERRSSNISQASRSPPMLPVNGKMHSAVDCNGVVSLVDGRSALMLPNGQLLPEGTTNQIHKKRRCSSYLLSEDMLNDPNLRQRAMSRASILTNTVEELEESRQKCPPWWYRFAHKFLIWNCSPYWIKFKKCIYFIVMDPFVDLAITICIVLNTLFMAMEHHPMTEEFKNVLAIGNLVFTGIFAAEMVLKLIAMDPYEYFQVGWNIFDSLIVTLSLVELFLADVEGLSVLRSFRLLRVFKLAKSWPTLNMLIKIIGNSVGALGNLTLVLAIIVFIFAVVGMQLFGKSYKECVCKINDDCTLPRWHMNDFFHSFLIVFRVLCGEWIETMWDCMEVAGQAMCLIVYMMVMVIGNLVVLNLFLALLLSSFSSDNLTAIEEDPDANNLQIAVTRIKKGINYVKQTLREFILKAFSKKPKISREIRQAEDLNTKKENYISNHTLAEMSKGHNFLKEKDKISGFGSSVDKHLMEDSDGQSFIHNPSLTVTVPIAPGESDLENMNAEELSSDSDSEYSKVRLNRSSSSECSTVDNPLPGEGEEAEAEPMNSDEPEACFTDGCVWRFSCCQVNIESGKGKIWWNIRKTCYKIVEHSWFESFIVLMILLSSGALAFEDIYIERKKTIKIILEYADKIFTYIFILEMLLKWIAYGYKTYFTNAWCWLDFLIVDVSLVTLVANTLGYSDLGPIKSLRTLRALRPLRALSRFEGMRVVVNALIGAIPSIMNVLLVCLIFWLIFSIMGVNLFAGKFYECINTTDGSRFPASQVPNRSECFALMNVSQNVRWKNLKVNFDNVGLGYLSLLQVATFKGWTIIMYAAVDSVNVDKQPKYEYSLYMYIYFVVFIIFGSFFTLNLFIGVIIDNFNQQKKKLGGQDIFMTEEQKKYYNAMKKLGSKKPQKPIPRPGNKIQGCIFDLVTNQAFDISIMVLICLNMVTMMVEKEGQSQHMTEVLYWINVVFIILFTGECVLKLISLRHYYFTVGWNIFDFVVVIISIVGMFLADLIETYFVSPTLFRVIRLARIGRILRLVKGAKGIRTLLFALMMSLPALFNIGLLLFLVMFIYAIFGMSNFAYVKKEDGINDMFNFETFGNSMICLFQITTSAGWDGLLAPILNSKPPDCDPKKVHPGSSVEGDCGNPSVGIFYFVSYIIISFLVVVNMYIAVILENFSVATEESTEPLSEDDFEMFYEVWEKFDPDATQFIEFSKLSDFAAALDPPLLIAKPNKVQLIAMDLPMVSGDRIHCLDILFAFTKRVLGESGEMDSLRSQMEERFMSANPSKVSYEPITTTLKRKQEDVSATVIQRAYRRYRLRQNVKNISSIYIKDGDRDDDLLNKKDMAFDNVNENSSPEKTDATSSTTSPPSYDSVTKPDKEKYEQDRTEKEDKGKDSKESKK

[4] = read-out: Nav1.7 LBA (Ex. 243A) IC50
[5] = read-out: Nav1.7 (LBA) (Ex. 243A)

| SMILES | IC50 (hNav1.7 [1]; [4]) | IC50 (hNav1.7 [1]; [5]) | IC50 (hNav1.7 [2]) | IC50 (hNav1.7 [3]) |
| --- | --- | --- | --- | --- |
| CN(CCO)[C@H]1CCCC[C@@H]1Nc1cc(F)c(S(=O)(=O)Nc2nccs2)cc1C1CC1 [Example 56, 5-cyclopropyl-2-fluoro-4-(((1S,2S)-2-((2-hydroxyethyl)(methyl)amino)cyclohexyl)amino)-N-(thiazol-2-yl)benzenesulfonamide hydrochloride] | 3.46 nM | – | – | – |
| CN(C)[C@@H]1CC[C@H](C(F)(F)F)C[C@H]1Nc1cc(F)c(S(=O)(=O)Nc2nccs2)cc1Cl [Example 84, 5-chloro-4-(((1R,2R,5S)-2-(dimethylamino)-5-(trifluoromethyl)cyclohexyl)amino)-2-fluoro-N-(thiazol-2-yl)benzenesulfonamide] | 3000 nM | – | – | – |
| CN(C)[C@H]1CCC[C@@H]1Oc1cc(F)c(S(=O)(=O)Nc2nccs2)cc1Cl [Example 9, 5-chloro-4-(((1S,2S)-2-(dimethylamino)cyclopentyl)oxy)-2-fluoro-N-(thiazol-2-yl)benzenesulfonamide] | – | 3000 nM | – | – |
| CN(C)[C@H]1CCCC[C@@H]1Oc1cc(F)c(S(=O)(=O)Nc2nccs2)cc1C1CC1 [Example 24, 5-cyclopropyl-4-[(1S,2S)-2-(dimethylamino)cyclohexoxy]-2-fluoro-N-thiazol-2-yl-benzenesulfonamide] | – | 49.9 nM | – | – |
| CN(C)[C@@H]1CCCC[C@H]1Oc1cc(F)c(S(=O)(=O)Nc2nccs2)cc1C1CC1 [Example 25, 5-cyclopropyl-4-[(1R,2R)-2-(dimethylamino)cyclohexoxy]-2-fluoro-N-thiazol-2-yl-benzenesulfonamide] | – | 7420 nM | – | – |
| CCN(C)[C@H]1CCCC[C@@H]1Nc1cc(F)c(S(=O)(=O)Nc2cccc(F)n2)cc1Cl [Example 71, 5-chloro-4-(((1S,2S)-2-(ethyl(methyl)amino)cyclohexyl)amino)-2-fluoro-N-(6-fluoropyridin-2-yl)benzenesulfonamide] | 41.3 nM | – | – | – |
| O=S(=O)(Nc1cccc(F)n1)c1cc(Cl)c(N[C@H]2CCCC[C@@H]2N2CCC(O)C2)cc1F (stereo partly drawn) [Example 62, 5-chloro-2-fluoro-N-(6-fluoropyridin-2-yl)-4-(((1S,2S)-2-(3-hydroxypyrrolidin-1-yl)cyclohexyl)amino)benzenesulfonamide] | 57.8 nM | – | – | – |
| CN(C)[C@@H]1CC=C(C(F)(F)F)C[C@H]1Nc1cc(F)c(S(=O)(=O)Nc2nccs2)cc1Cl [Example 48, 5-chloro-4-(((1R,6R)-6-(dimethylamino)-3-(trifluoromethyl)cyclohex-3-en-1-yl)amino)-2-fluoro-N-(thiazol-2-yl)benzenesulfonamide formate] | 127 nM | – | – | – |
| CCCN[C@H]1CCCC[C@@H]1Nc1cc(F)c(S(=O)(=O)Nc2nccs2)cc1Cl [Example 34, 5-chloro-2-fluoro-4-(((1 S,2S)-2-(propylamino)cyclohexyl)amino)-N-(thiazol-2-yl)benzenesulfonamide] | 35.2 nM | – | – | – |
| CN[C@H]1CCCC[C@@H]1Nc1cc(F)c(S(=O)(=O)Nc2cccc(F)n2)cc1Cl [Example 74, 5-chloro-2-fluoro-N-(6-fluoropyridin-2-yl)-4-(((1S,2S)-2-(methylamino)cyclohexyl)amino)benzenesulfonamide] | 91.7 nM | – | – | – |
| O=S(=O)(Nc1cccc(F)n1)c1cc(Cl)c(N[C@@H]2CCCC[C@H]2N2CCCC2)cc1F [Example 98, 5-chloro-2-fluoro-N-(6-fluoropyridin-2-yl)-4-(((1R,2R)-2-(pyrrolidin-1-yl)cyclohexyl)amino)benzenesulfonamide] | 3000 nM | – | – | – |
| CN(C)[C@H]1C[C@H](C(F)(F)F)CC[C@@H]1Nc1cc(F)c(S(=O)(=O)Nc2nccs2)cc1Cl [Example 77, 5-chloro-4-(((1S,2S,4R)-2-(dimethylamino)-4-(trifluoromethyl)cyclohexyl)amino)-2-fluoro-N-(thiazol-2-yl)benzenesulfonamide] | 43.2 nM | – | – | – |
| C[N+](C)([O-])[C@H]1C[C@@H](c2cccc(C(F)(F)F)c2)CC[C@@H]1Nc1cc(F)c(S(=O)(=O)Nc2ccncn2)cc1Cl [Example 235, (1S,2S,5S)-2-((2-Chloro-5-fluoro-4-(N-(pyrimidin-4-yl)sulfamoyl)phenyl)amino)-N,N-dimethyl-5-(3-(trifluoromethyl)phenyl)cyclohexanamine oxide] | – | – | 11.8 nM | 8.14 nM |
| CN(C)[C@H]1C[C@H]2[C@@H](C[C@@H]1Nc1cc(F)c(S(=O)(=O)Nc3nccs3)cc1Cl)C2(Cl)Cl [Example 196, 5-Chloro-4-(((1R,3S,4S,6S)-7,7-dichloro-4-(dimethylamino)bicyclo[4.1.0]heptan-3-yl)amino)-2-fluoro-N-(thiazol-2-yl)benzenesulfonamide formate] | – | – | 664 nM | 120 nM |
| CN(C)[C@H]1Cc2ccccc2C[C@@H]1Nc1cc(F)c(S(=O)(=O)Nc2nccs2)cc1Cl [Example 165, 5-Chloro-4-(((2S,3S)-3-(dimethylamino)-1,2,3,4-tetrahydronaphthalen-2-yl)amino)-2-fluoro-N-(thiazol-2-yl)benzenesulfonamide] | – | – | 2000 nM | 511 nM |
| CC1(O)CCN([C@H]2CCCC[C@@H]2Nc2cc(F)c(S(=O)(=O)Nc3nccs3)cc2Cl)CC1 [Example 150, 5-chloro-2-fluoro-4-(((1S,2S)-2-(4-hydroxy-4-methylpiperidin-1-yl)cyclohexyl)amino)-N-(thiazol-2-yl)benzenesulfonamide formate] | – | – | 1410 nM | 103 nM |
| CN(C)[C@H]1C[C@@H](C(F)(F)F)CC[C@@H]1Nc1cc(F)c(S(=O)(=O)Nc2ccncn2)cc1C1CC1 [Example 178, 5-cyclopropyl-4-(((1S,2S,4S)-2-(dimethylamino)-4-(trifluoromethyl)cyclohexyl)amino)-2-fluoro-N-(pyrimidin-4-yl)benzenesulfonamide] | – | – | 205 nM | 19.1 nM |
| O=S(=O)(Nc1cccc(F)n1)c1cc(Cl)c(N[C@H]2CCCC[C@@H]2N2C[C@@H]3[C@@H](CO)[C@@H]3C2)cc1F [Example 185] | – | – | 771 nM | 36.2 nM |
| CN(C)[C@@H]1CN(c2cccc(C(F)(F)F)c2)CC[C@H]1Nc1cc(F)c(S(=O)(=O)Nc2ccncn2)cc1Cl [Example 234, 5-Chloro-4-(((3R,4R)-3-(dimethylamino)-1-(3-(trifluoromethyl)phenyl)piperidin-4-yl)amino)-2-fluoro-N-(pyrimidin-4-yl)benzenesulfonamide formate] | – | – | 2000 nM | 131 nM |
| CN(C)[C@H]1CCCCC[C@@H]1Nc1cc(F)c(S(=O)(=O)Nc2nccs2)cc1Cl [Example 144, 5-chloro-4-(((1S,2S)-2-(dimethylamino)cycloheptyl)amino)-2-fluoro-N-(thiazol-2-yl)benzenesulfonamide formate] | – | – | 374 nM | 25.8 nM |
| CN(C)[C@H]1C[C@@H](c2cccc(C(F)(F)F)c2)CC[C@@H]1Nc1cc(F)c(S(=O)(=O)Nc2ccncn2)cc1Br [Example 227, 5-Bromo-4-(((1S,2S,4S)-2-(dimethylamino)-4-(3-(trifluoromethyl)phenyl)cyclohexyl)amino)-2-fluoro-N-(pyrimidin-4-yl)benzenesulfonamide] | – | – | 0.69 nM | 1.19 nM |
| CN(C)[C@H]1C[C@@H](c2cccc(C(F)(F)F)c2)CC[C@@H]1Oc1cc(F)c(S(=O)(=O)Nc2ccncn2)cc1Cl [Example 238, 5-chloro-4-(((1S,2S,4S)-2-(dimethylamino)-4-(3-(trifluoromethyl)phenyl)cyclohexyl)oxy)-2-fluoro-N-(pyrimidin-4-yl)benzenesulfonamide] | – | – | 5.54 nM | 1.17 nM |
| CN(CC(O)CF)[C@H]1CCCC[C@@H]1Nc1cc(F)c(S(=O)(=O)Nc2nccs2)cc1Cl (single isomer, unassigned) [Example 119] | – | – | 184 nM | 10.7 nM |
| CN1CCC[C@H]1C(=O)N(C)[C@H]1CCCC[C@@H]1Nc1cc(F)c(S(=O)(=O)Nc2nccs2)cc1Cl [Example 201, (S)—N-((1S,2S)-2-((2-chloro-5-fluoro-4-(N-(thiazol-2-yl)sulfamoyl)phenyl)amino)cyclohexyl)-N,1-dimethylpyrrolidine-2-carboxamide] | – | – | 308 nM | 29.6 nM |
